From US20240294551A1 (AMGEN INC., priority 2022, published 2024)

Tests used:
[1] = target: His-tagged KRAS G12D protein (Homo sapiens (Human), UniProt P01116, G12D); assay: KRAS G12D TR-FRET Assay; format: binding; conditions: read-out: KRAS G12D Binding IC50
Procedure, shortened: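 His-tagged KRAS G12D (diluted to 20 nM in pH 7.4 HEPES buffer with 10 mM MgCl2 and 10 μM GDP) was preincubated with titrated compound for 30 min at room temperature. Biotinylated KRPep-2d peptide (diluted to 20 nM) was then added for 1 h, and displacement was monitored by TR-FRET.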

[2] = target: GDP-bound KRAS protein (aa 1-169), containing both G12D and C118A amino acid substitutions (Homo sapiens (Human), UniProt P01116, C118A/G12D); assay: KRAS G12D Coupled Nucleotide Exchange Assay; format: biochemical; conditions: read-out: KRAS G12D Coupled Exchange IC50
[3] = system: Phosphorylation of ERK1/2 in AsPC-1 cells; assay: Phospho-ERK1/2 MSD Assay; format: cell-based, human; conditions: Homo sapiens, ASPC1, 2 h, read-out: 2 h p-ERK (AsPC-1 cells), IC50
Procedure, shortened: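 Read-out: MSD electrochemiluminescent detection of phosphorylated ERK1/2 in whole-cell lysates, fitted to a 4-parameter logistic curve for IC50. Prior to lysis, AsPC-1 cells (25,000 per well) received a 2 h compound dose-response at 37 °C.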

AsPC-1 cells = assay: AsPC-1 CTG Assay (CellTiter-Glo cell viability); format: cell-based, human; conditions: Homo sapiens, ASPC1, 72 h, AsPC-1, 72 h; first value of the cell; read-out: G12D/C/V Cell Proliferation CTG (72 h) AsPC-1
Procedure, shortened: (§1)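 Human pancreatic AsPC-1 or colon SW620 cells in RPMI 1640 with 10% FBS, seeded overnight, then exposed to serially diluted compound for 72 h at 37 °C. CellTiter-Glo luminescence normalized to DMSO control; IC50 from a 4-parameter logistic model.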

SW620 cells = assay: SW620 CTG Assay (CellTiter-Glo cell viability); format: cell-based, human; conditions: Homo sapiens, SW-620; SW620, 72 h; third value of the cell; read-out: G12D/C/V Cell Proliferation CTG (72 h) SW620
Procedure, shortened: as §1

MIA PaCa-2 cells = assay: MIA PaCa-2 CTG Assay (CellTiter-Glo cell viability); format: cell-based, human; conditions: Homo sapiens; Mia PaCa-2, 72 h; second value of the cell; read-out: G12D/C/V Cell Proliferation CTG (72 h) Mia PaCa-2
Procedure, shortened: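 Human pancreatic carcinoma cells in RPMI 1640 with 10% FBS, seeded at 1.67E+04 cells/mL and left overnight, were treated with serially diluted compound for 72 h at 37° C, 5% CO2. Viability was read by CellTiter-Glo luminescence normalized to DMSO; IC50 came from a 4-parameter logistic fit.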

[4] = system: p-ERK in PANC 04.03 tumor-bearing mice; assay: Tumor Pharmacodynamic Assay (p-ERK inhibition in PANC 04.03 tumors); format: in vivo; conditions: Mus musculus; PANC 04.03 tumor-bearing female athymic nude mice; single oral dose 100 mg/kg; tumors harvested 2 hr later; relative to vehicle group
Protocol: Tumor Pharmacodynamic Assays
Inhibitor pharmacodynamic effects were assessed in PANC 04.03 tumor-bearing mice. PANC 04.03 tumor cells (5.0E+06 cells) were injected subcutaneously into the flank of female athymic nude mice in a mixture with Matrigel (BD Bioscience). Mice received a single oral dose of either vehicle or inhibitor (100 mg/kg) when the average tumor size reached -300-600 mm^3 (n=3/group) and harvested 2 hours later. Tumor samples were collected, snap frozen, and processed for analysis by pulverizing with a cryoPREP® Dry Impactor (Covaris). Pulverized samples were resuspended in RIPA lysis buffer containing protease and phosphatase inhibitors and homogenized. Cleared lysates were analyzed using phospho-ERK1/2 and total ERK1/2 whole cell lysate kits (Meso Scale Discovery) according to the manufacturer's protocol. Phospho-ERK1/2 signal was normalized to total ERK1/2 signal for a given sample, and percent inhibition of p-ERK was calculated relative to the vehicle group.

His-tagged KRAS G12D protein, sequence (P01116 other isoform, or with tags, fused parts or gaps G12D): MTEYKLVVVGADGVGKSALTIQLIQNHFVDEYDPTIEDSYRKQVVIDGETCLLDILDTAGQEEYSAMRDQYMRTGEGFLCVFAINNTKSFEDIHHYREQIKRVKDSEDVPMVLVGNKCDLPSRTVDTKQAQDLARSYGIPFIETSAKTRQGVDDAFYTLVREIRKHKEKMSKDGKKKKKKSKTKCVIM
GDP-bound KRAS protein (aa 1-169), containing both G12D and C118A amino acid substitutions, sequence (P01116 other isoform, or with tags, fused parts or gaps G12D/C118A): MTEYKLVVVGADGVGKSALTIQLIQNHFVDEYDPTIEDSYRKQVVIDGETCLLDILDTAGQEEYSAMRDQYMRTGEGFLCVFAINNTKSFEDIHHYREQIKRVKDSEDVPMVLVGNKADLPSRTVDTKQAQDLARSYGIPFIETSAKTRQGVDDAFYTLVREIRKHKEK

Compound | IC50 [1] | IC50 [2] | IC50 [3] | IC50 (AsPC-1 cells) | IC50 (SW620 cells) | IC50 (MIA PaCa-2 cells) | inhibition in vivo at 100 mg/kg [4]
CN1CCC[C@H]1COc1nc2c3cnc(c(F)c3n1)-c1c(c(Cl)cc3[nH]ncc13)CCOC(=O)O[C@H]1C[C@]3(CCCN2C3)C1 (single isomer, unassigned) [Example 212] | 4 nM | 3 nM | 5.3 nM | 79 nM | 20 nM | 24 nM | 85%
C[C@@]12CCCN(C1)c1nc(OC[C@@]34CCCN3C[C@H](F)C4)nc3c(F)c(ncc13)-c1cccc3ccc(F)c(c13)CCCC(=O)N2 [Example 7, (15R)-22,31-Difluoro-8-(((2R,7aS)-2-fluorotetrahydro-1H-pyrrolo[1,2-a]pyrrol-7a(5H)-yl)methoxy)-15-methyl-3,7,9,11,16-pentaazahexacyclo[19.7.1.1˜2,6˜.1˜11,15˜.0˜5,10˜.0˜25,29˜]hentriaconta-1(28),2(31),3,5,7,9,21,23,25(29),26-decaen-17-one bis(2,2,2-trifluoroacetate)] | 15 nM | 15 nM | 260 nM | – | – | – | 21%
O[C@@H]1c2ncc(o2)CCc2c(Cl)cc3[nH]ncc3c2-c2ncc3c(nc(OC[C@@]45CCCN4C[C@H](F)C5)nc3c2F)N2CCC[C@@H]1C2 [Example 233] | 4 nM | 3 nM | 1 nM | 2 nM | 1 nM | – | 23%
O=C1COCCCc2c(Cl)cc3[nH]ncc3c2-c2ncc3c(nc(OC[C@@]45CCCN4C[C@H](F)C5)nc3c2F)N2CC[C@H]3CCN1[C@H]3C2 [Example 168, (29S,33R)-18-chloro-34-fluoro-4-(((2R,7aS)-2-fluorotetrahydro-1H-pyrrolo[1,2-a]pyrrol-7a(5H)-yl)methoxy)-23-oxa-1,3,5,9,14,15,26-heptaazaheptacyclo[24.5.2.1~6,10~.0~2,7~.0~11,19~.0~12,16~.0~29,33~]tetratriaconta-2,4,6,8,10(34),11,13,16,18-nonaen-25-one] | 3 nM | 1 nM | 1.3 nM | 10 nM | 3 nM | – | 65%
CN1CCC[C@H]1COc1nc2c3cnc(c(F)c3n1)-c1c(c(Cl)cc3[nH]ncc13)CCCOC(=O)O[C@]1(C)COCCN2C1 [Example 181, (26S)-18-chloro-32-fluoro-26-methyl-4-(((2S)-1-methyl-2-pyrrolidinyl)methoxy)-23,25,28-trioxa-1,3,5,9,14,15-hexaazahexacyclo[24.4.1.1~6,10~.0~2,7~.0~11,19~.0~12,16~]dotriaconta-2,4,6,8,10(32),11,13,16,18-nonaen-24-one] | 6 nM | 3 nM | 18.8 nM | – | 8 nM | 10 nM | 65%
C[C@@]12CCCN(C1)c1nc(OC[C@@]34CCCN3C[C@H](F)C4)nc3c(F)c(c(F)cc13)-c1cc(O)cc3ccc(F)c(c13)CCCC(=O)N2 [Example 15, (15R)-3,22,31-Trifluoro-8-(((2R,7aS)-2-fluorotetrahydro-1H-pyrrolo[1,2-a]pyrrol-7a(5H)-yl)methoxy)-27-hydroxy-15-methyl-7,9,11,16-tetraazahexacyclo[19.7.1.1˜2,6˜.1˜11,15˜.0˜5,10˜.0˜25,29˜]hentriaconta-1(28),2(31),3,5,7,9,21,23,25(29),26-decaen-17-one bis(2,2,2-trifluoroacetate)] | 4 nM | 3 nM | 19 nM | 141 nM | 80 nM | – | 0%

More lines, main results first:

IC50 [1] | IC50 [2] | IC50 [3] | IC50 (AsPC-1 cells) | IC50 (SW620 cells) | IC50 (MIA PaCa-2 cells) | Compound | inhibition in vivo at 100 mg/kg [4]
5 nM | 3 nM | 16.2 nM | 68 nM | – | 90 nM | C[C@@]12CCCCN(C1)c1nc(OC[C@@]34CCCN3C[C@H](F)C4)nc3c(F)c(ncc13)-c1c(c(Cl)cc3[nH]ncc13)CCCCC(=O)N2 [Example 166, (26R)-18-chloro-32-fluoro-4-(((2R,7aS)-2-fluorotetrahydro-1H-pyrrolo[1,2-a]pyrrol-7a(5H)-yl)methoxy)-26-methyl-1,3,5,9,14,15,25-heptaazahexacyclo [24.4.1.1~6,10~.0~2,7~.0~11,19~.0~12,16~]dotriaconta-2,4,6,8,10(32),11,13,16,18-nonaen-24-one] | 63%
4 nM | 2 nM | 4.5 nM | 5 nM | 4 nM | 4 nM | Cc1cc2[nH]ncc2c2c1CCCOC(=O)O[C@]1(C)COCCN(C1)c1nc(OC[C@@]34CCCN3C[C@H](F)C4)nc3c(F)c-2ncc13 [Example 190, (26S)-32-fluoro-4-(((2R,7aS)-2-fluorotetrahydro-1H-pyrrolo[1,2-a]pyrrol-7a(5H)-yl)methoxy)-18,26-dimethyl-23,25,28-trioxa-1,3,5,9,14,15-hexaazahexacyclo[24.4.1.1~6,10~.0~2,7~.0~11,19~.0~12,16~]dotriaconta-2,4,6,8,10(32),11,13,16,18-nonaen-24-one] | 86%
3 nM | 2 nM | 1.9 nM | 8 nM | 2 nM | 1 nM | C[C@@]12COCCN(C1)c1nc(OC[C@@]34CCCN3C[C@H](F)C4)nc3c(F)c(ncc13)-c1c(c(Cl)cc3[nH]ncc13)CCCOC(=O)O2 [Example 191, (26S)-18-chloro-32-fluoro-4-(((2R,7aS)-2-fluorotetrahydro-1H-pyrrolo[1,2-a]pyrrol-7a(5H)-yl)methoxy)-26-methyl-23,25,28-trioxa-1,3,5,9,14,15-hexaazahexacyclo[24.4.1.1~6,10~.0~2,7~.0~11,19~.0~12,16~]dotriaconta-2,4,6,8,10(32),11,13,16,18-nonaen-24-one] | 91%
5 nM | 3 nM | 3.9 nM | 3 nM | 3 nM | – | C[C@@]12COCCN(C1)c1nc(OCC34CCCN3CCC4)nc3c(F)c(ncc13)-c1c(c(Cl)cc3[nH]ncc13)CCCOC(=O)O2 [Example 209, (26S)-18-chloro-32-fluoro-26-methyl-4-(tetrahydro-1H-pyrrolo[1,2-a]pyrrol-7a(5H)-ylmethoxy)-23,25,28-trioxa-1,3,5,9,14,15-hexaazahexacyclo[24.4.1.1~6,10~.0~2,7~.0~11,19~.0~12,16~]dotriaconta-2,4,6,8,10(32),11,13,16,18-nonaen-24-one] | 63%
4 nM | 2 nM | 7.8 nM | 13 nM | – | 7 nM | O=C1OCCc2c(Cl)cc3[nH]ncc3c2-c2ncc3c(nc(OC[C@@]45CCCN4C[C@H](F)C5)nc3c2F)N2CCO[C@]3(C2)C[C@H](C3)O1 [Example 248, (1R,3R)-10-chloro-32-fluoro-24-(((2R,7aS)-2-fluorotetrahydro-1H-pyrrolo[1,2-a]pyrrol-7a(5H)-yl)methoxy)-4,6,30-trioxa-13,14,19,23,25,27-hexaazaheptacyclo[25.3.1.1~1,3~.1~18,22~.0~9,17~.0~12,16~.0~21,26~]tritriaconta-9,11,14,16,18(32),19,21,23,25-nonaen-5-one] | 85%
